Measurements published in a compilation of properties of binary mixtures (doi:10.1016/j.molliq.2022.119052).

Assay: xn = mol fraction of the nth substance listed
Details: 100 kPa, x1 = 0.333

Structure (SMILES) | viscosity (303.15 K) | viscosity (323.15 K) | viscosity (298.15 K) | viscosity (313.15 K) | viscosity (333.15 K)
Cn1cc[nH+]c1.[Cl-] + OCC(O)CO | 103.1 mPa·s | 49.1 mPa·s |  |  | 
CCn1cc[nH+]c1.[Cl-] + OCC(O)CO |  | 32 mPa·s | 79.9 mPa·s | 45.3 mPa·s | 23 mPa·s
CC[n+]1ccn(C)c1.[Cl-] + OCC(O)CO |  | 58.5 mPa·s | 156.4 mPa·s | 85.1 mPa·s | 41.2 mPa·s
